In PubChem BioAssay AID248 (DTP/NCI, 2004):
“And” between values parts separate entries of the source, which are not always exact repeats. Equal values may be shown once. Inconclusive results and toxic doses are left out. No stated cut-off is given here; in the data, active means T/C of 150% or more; inactive means T/C below 125%.

System: L1210 leukemia ip in BDF1 mice, survival T/C
Experiment: NCI In Vivo Anticancer Drug Screen. Data for tumor model L1210 Leukemia (intraperitoneal) in B6D2F1 (BDF1) mice
Conditions: endpoint: mean survival time, higher = longer survival
Summary of the method: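 Value reflects the ratio of survival in compound-treated mice to survival in vehicle-treated controls, with both groups carrying the same transplanted tumor.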

[1] = dose: 100.0 mg/kg/injection, schedule: Q04DX002 (ip), vehicle: Klucel (hydroxypropylcellulose) (HPC)
[2] = dose: 200.0 mg/kg/injection, schedule: Q04DX002 (ip), vehicle: Klucel (hydroxypropylcellulose) (HPC)
[3] = dose: 400.0 mg/kg/injection, schedule: Q04DX002 (ip), vehicle: Klucel (hydroxypropylcellulose) (HPC)
[4] = dose: 75.0 mg/kg/injection, schedule: Q01DX001 (ip), vehicle: saline
[5] = dose: 150.0 mg/kg/injection, schedule: Q01DX001 (ip), vehicle: saline
[6] = dose: 300.0 mg/kg/injection, schedule: Q01DX001 (ip), vehicle: saline
[7] = dose: 100.0 mg/kg/injection, schedule: Q01DX009 (ip), vehicle: Klucel (hydroxypropylcellulose) (HPC)
[8] = dose: 200.0 mg/kg/injection, schedule: Q01DX009 (ip), vehicle: Klucel (hydroxypropylcellulose) (HPC)
[9] = dose: 400.0 mg/kg/injection, schedule: Q01DX009 (ip), vehicle: Klucel (hydroxypropylcellulose) (HPC)
[10] = dose: 50.0 mg/kg/injection, schedule: Q01DX009 (ip), vehicle: saline with Tween-80
[11] = dose: 100.0 mg/kg/injection, schedule: Q04DX003 (ip), vehicle: saline with Tween-80
[12] = dose: 100.0 mg/kg/injection, schedule: Q01DX009 (ip), vehicle: saline with Tween-80
[13] = dose: 100.0 mg/kg/injection, schedule: Q04DX003 (ip), vehicle: Klucel (hydroxypropylcellulose) (HPC)
[14] = dose: 200.0 mg/kg/injection, schedule: Q01DX009 (ip), vehicle: saline with Tween-80
[15] = dose: 200.0 mg/kg/injection, schedule: Q04DX003 (ip), vehicle: Klucel (hydroxypropylcellulose) (HPC)
[16] = dose: 400.0 mg/kg/injection, schedule: Q04DX003 (ip), vehicle: Klucel (hydroxypropylcellulose) (HPC)
[17] = dose: 50.0 mg/kg/injection, schedule: Q01DX009 (ip), vehicle: Klucel (hydroxypropylcellulose) (HPC)
[18] = dose: 400.0 mg/kg/injection, schedule: Q01DX009 (ip), vehicle: saline with Tween-80
[19] = dose: 200.0 mg/kg/injection, schedule: Q04DX003 (ip), vehicle: saline with Tween-80
[20] = dose: 100.0 mg/kg/injection, schedule: Q01DX001 (ip), vehicle: saline
[21] = dose: 200.0 mg/kg/injection, schedule: Q01DX001 (ip), vehicle: saline
[22] = dose: 400.0 mg/kg/injection, schedule: Q01DX001 (ip), vehicle: saline

Measured: T/C

C=CCNc1cc(NN)nn2nnnc12
inactive: [1] 108 % of control | [2] 104 % of control | [3] 123 % of control

CCC1(C(C)Br)OC2=C(CC(C#N)(C#N)C(C#N)(C#N)C2)O1 (stereo unspecified)
inactive: dose: 25.0 mg/kg/injection, schedule: Q01DX009 (ip), vehicle: other 100 % of control | dose: 50.0 mg/kg/injection, schedule: Q01DX009 (ip), vehicle: saline 87 % of control | [4] 100 % of control | dose: 75.0 mg/kg/injection, schedule: Q01DX009 (ip), vehicle: other 87 % of control

NN(C(=O)c1ccc([N+](=O)[O-])cc1)c1ccccc1
inactive: [4] 95 % of control | [5] 93 % of control | [6] 90 % of control

C=CC(=O)NCCN(C)C
inactive: [4] 104 % of control | [5] 93 % of control | [6] 104 % of control

CC(=O)c1cccc(F)n1
inactive: [1] 93 % of control | [2] 110 % of control | [3] 100 % of control

CN1CCC(OC(N)=O)CC1
inactive: dose: 100.0 mg/kg/injection, schedule: Q01DX009 (ip), vehicle: saline 99 % of control | dose: 100.0 mg/kg/injection, schedule: Q04DX003 (ip), vehicle: saline 103 % of control | dose: 200.0 mg/kg/injection, schedule: Q01DX009 (ip), vehicle: saline 104 % of control | dose: 200.0 mg/kg/injection, schedule: Q04DX003 (ip), vehicle: saline 103 % of control | dose: 400.0 mg/kg/injection, schedule: Q01DX009 (ip), vehicle: saline 96 % of control | dose: 400.0 mg/kg/injection, schedule: Q04DX003 (ip), vehicle: saline 101 % of control

CCOC(=O)C1CCc2c(ccc3ccccc23)N1CCC#N (stereo unspecified)
inactive: dose: 100.0 mg/kg/injection, schedule: Q01DX009 (ip), vehicle: carboxymethylcellulose (CMC) 95 % of control and 101 % of control | dose: 100.0 mg/kg/injection, schedule: Q04DX002 (ip), vehicle: carboxymethylcellulose (CMC) 97 % of control | dose: 100.0 mg/kg/injection, schedule: Q04DX003 (ip), vehicle: carboxymethylcellulose (CMC) 105 % of control | dose: 200.0 mg/kg/injection, schedule: Q01DX009 (ip), vehicle: carboxymethylcellulose (CMC) 98 % of control and 88 % of control | dose: 200.0 mg/kg/injection, schedule: Q04DX002 (ip), vehicle: carboxymethylcellulose (CMC) 91 % of control | dose: 200.0 mg/kg/injection, schedule: Q04DX003 (ip), vehicle: carboxymethylcellulose (CMC) 101 % of control | dose: 400.0 mg/kg/injection, schedule: Q01DX009 (ip), vehicle: carboxymethylcellulose (CMC) 97 % of control and 107 % of control | dose: 400.0 mg/kg/injection, schedule: Q04DX002 (ip), vehicle: carboxymethylcellulose (CMC) 97 % of control | dose: 400.0 mg/kg/injection, schedule: Q04DX003 (ip), vehicle: carboxymethylcellulose (CMC) 110 % of control

C/C=C(\C)C(=O)O
inactive: dose: 222.0 mg/kg/injection, schedule: Q01DX Z (ip), vehicle: saline 90 % of control

Clc1cccc(N=Cc2ccc3c(c2)OCO3)c1Cl
inactive: [7] 97 % of control | [8] 94 % of control | [9] 100 % of control

CC(=O)CCCSCCOC(C)=O
inactive: [7] 95 % of control | [8] 101 % of control | [9] 101 % of control

CCC(CCC(C)C1CCC2C3CC=C4CC(O)CCC4(C)C3CCC12C)C(C)C (stereo unspecified) (tested in a mixture with another compound)
inactive: dose: 12.5 mg/kg/injection, schedule: Q#A X030 (ip), vehicle: water 103 % of control | dose: 25.0 mg/kg/injection, schedule: Q01DX009 (ip), vehicle: saline with Tween-80 93 % of control | dose: 25.0 mg/kg/injection, schedule: Q#A X030 (ip), vehicle: water 101 % of control | [10] 89 % of control | dose: 50.0 mg/kg/injection, schedule: Q#A X030 (ip), vehicle: water 92 % of control | [11] 100 % of control | dose: 200.0 mg/kg/injection, schedule: Q01DX001 (ip), vehicle: water 101 % of control | dose: 400.0 mg/kg/injection, schedule: Q01DX001 (ip), vehicle: water 95 % of control

O=C(COc1ccc(Cl)c(Cl)c1)NCc1cccc(NC(=O)c2cccc(S(=O)(=O)F)c2)c1
inactive: dose: 100.0 mg/kg/injection, schedule: Q01DX001 (ip), vehicle: Klucel (hydroxypropylcellulose) (HPC) 107 % of control | dose: 200.0 mg/kg/injection, schedule: Q01DX001 (ip), vehicle: Klucel (hydroxypropylcellulose) (HPC) 98 % of control | dose: 400.0 mg/kg/injection, schedule: Q01DX001 (ip), vehicle: Klucel (hydroxypropylcellulose) (HPC) 91 % of control

COc1ccc(Br)cc1
inactive: [12] 96 % of control | [13] 100 % of control | [14] 89 % of control | [15] 100 % of control | [16] 103 % of control

CC(=O)Oc1c(C(C)(C)C)cc(C)cc1C(C)(C)C
inactive: [17] 100 % of control | [7] 100 % of control | [8] 103 % of control

O=S(=O)(c1cc(Cl)c(O)c(Cl)c1)c1cc(Cl)c(O)c(Cl)c1
inactive: dose: 25.0 mg/kg/injection, schedule: Q01DX009 (ip), vehicle: Klucel (hydroxypropylcellulose) (HPC) 92 % of control | [17] 96 % of control | [7] 95 % of control and 109 % of control

C=COCCOC
inactive: [12] 104 % of control | [14] 101 % of control | [18] 107 % of control

Oc1ccc2ccccc2c1Sc1c(O)ccc2ccccc12
inactive: [11] 101 % of control | [19] 101 % of control

Nc1nc2ncc(CCCNc3ccc(C(=O)NC(CCC(=O)O)C(=O)O)cc3)nc2c(=O)[nH]1 (stereo unspecified)
inactive: dose: 50.0 mg/kg/injection, schedule: Q01DX001 (ip), vehicle: carboxymethylcellulose (CMC) 94 % of control | dose: 100.0 mg/kg/injection, schedule: Q01DX001 (ip), vehicle: carboxymethylcellulose (CMC) 108 % of control | dose: 200.0 mg/kg/injection, schedule: Q01DX001 (ip), vehicle: carboxymethylcellulose (CMC) 94 % of control

COCc1c(C)cc(C)cc1C
inactive: dose: 50.0 mg/kg/injection, schedule: Q01DX001 (ip), vehicle: saline 91 % of control | [20] 107 % of control | [21] 103 % of control | [22] 113 % of control

C1=CC2C3CC(OCCOC4CC5CC4C4CC=CC54)C(C3)C2C1 (stereo unspecified)
inactive: [12] 97 % of control | [11] 98 % of control | [14] 93 % of control | [19] 100 % of control | [18] 104 % of control | dose: 400.0 mg/kg/injection, schedule: Q04DX003 (ip), vehicle: saline with Tween-80 95 % of control

CC1Nc2ccccc2NC1C (stereo unspecified)
inactive: [20] 98 % of control

Cc1ccc([N+](=O)[O-])cc1NC(=O)Nc1cccc2ccc(O)cc12
inactive: [7] 95 % of control | [8] 93 % of control | [9] 104 % of control

Cc1ccc(NC(=O)Nc2cc([N+](=O)[O-])ccc2F)cc1C
inactive: [13] 101 % of control | [15] 98 % of control | [16] 101 % of control

O=C1CC(c2ccccc2)NN1c1ccccc1 (stereo unspecified)
inactive: [10] 95 % of control and 97 % of control | [12] 100 % of control and 103 % of control | dose: 100.0 mg/kg/injection, schedule: Q04DX002 (ip), vehicle: alcohol 102 % of control | dose: 200.0 mg/kg/injection, schedule: Q04DX002 (ip), vehicle: alcohol 104 % of control | dose: 400.0 mg/kg/injection, schedule: Q04DX002 (ip), vehicle: alcohol 94 % of control

CCOc1cc(/C=N/NC(=O)c2ccccc2NC(=O)c2ccccc2Cl)ccc1O
inactive: [7] 90 % of control | [8] 95 % of control | [9] 92 % of control

CN=C(NC)SC
inactive: [20] 103 % of control | [13] 100 % of control | [21] 97 % of control | [15] 93 % of control | [22] 96 % of control | [16] 100 % of control

Cc1c([N+](=O)[O-])cc(C(C)(C)C)c(OC(=S)N(C)C)c1[N+](=O)[O-]
inactive: dose: 25.0 mg/kg/injection, schedule: Q04DX002 (ip), vehicle: saline with Tween-80 105 % of control | dose: 100.0 mg/kg/injection, schedule: Q04DX002 (ip), vehicle: saline with Tween-80 86 % of control
